C(=C\c1ccccc1)/CN1CCN(C(c2ccccc2)c2ccccc2)CC1
solubility (mole fraction)
Conditions	288.5 K	293.5 K	298.4 K	303.3 K	308.3 K	313.2 K
in acetonitrile	0.000877	0.00105	0.00137	0.00158	0.00204	0.00273
in isopropanol	0.00064	0.000811	0.000994	0.00127	0.00165	0.00208
in n-butanol	0.00273	0.00351	0.00412	0.00499	0.00607	0.00804
in n-butyl acetate	0.0153	0.0197	0.0226	0.0272	0.0337	0.0425

From BigSolDB 2.1
